{"source": "patent US20190307843A1", "about": "“SINGLE DOSE METHODS FOR PREVENTING AND TREATING FUNGAL INFECTIONS” (Cidara Therapeutics, Inc., priority 2016, published 2019)", "tested_on": "Candida albicans ATCC SC5314", "assay": "Prophylaxis, neutropenic ICR mouse candidiasis model, kidney CFU", "conditions": "for clearance of kidney CFU: 24 hours post-challenge", "note": "Starred links: 1 amine or outer side, 2 acyl side, 3 side chain; linkers in the order of their positions; H or OH if unused. Positions of bridges follow the written chain, without caps; N, C: chain ends. Non-standard residues stand in square brackets, D forms with d. Residues, ends and D or L forms follow the SMILES beside them. *: point of attachment. Orn(4R-OH,5R-OCH2CH2NMe3+) = C[N+](C)(C)CCO[C@@H](N[*:3])[C@H](O)C[C@H](N[*:1])C(=O)[*:2]; pTerphenylCO(4''-OnC5H11) = CCCCCOc1ccc(-c2ccc(-c3ccc(C(=O)*)cc3)cc2)cc1; hTyr(3S-OH,4S-OH) = N[C@H](C(=O)O)[C@H](O)[C@@H](O)c1ccc(O)cc1; Pro(3S-OH,4S-Me) = C[C@H]1CN[C@H](C(=O)O)[C@H]1O; Hyp = O=C(O)[C@@H]1C[C@@H](O)CN1"}
{"smiles": "CCCCCOc1ccc(-c2ccc(-c3ccc(C(=O)N[C@H]4C[C@@H](O)[C@@H](OCC[N+](C)(C)C)NC(=O)[C@@H]5[C@@H](O)[C@@H](C)CN5C(=O)[C@H]([C@@H](C)O)NC(=O)[C@H]([C@H](O)[C@@H](O)c5ccc(O)cc5)NC(=O)[C@@H]5C[C@@H](O)CN5C(=O)[C@H]([C@@H](C)O)NC4=O)cc3)cc2)cc1", "note": "[CD101] ({pTerphenylCO(4''-OnC5H11)}-[Orn(4R-OH,5R-OCH2CH2NMe3+)]T[Hyp][hTyr(3S-OH,4S-OH)]T[Pro(3S-OH,4S-Me)]; lactam 1-C)", "values": [{"measurement": "clearance of kidney CFU", "setting": "CD101 SC 10 mg/kg at Day −3 and Day −1", "result": "Complete clearance was observed in all animals"}, {"measurement": "clearance of kidney CFU", "setting": "CD101 SC 20 mg/kg on Day −3", "result": "all but one animal"}, {"measurement": "kidney CFU burden", "setting": "CD101 SC 20 mg/kg, Day −5, −3 or −1", "result": "reduced CFU burden regardless of prophylactic treatment day"}, {"measurement": "kidney CFU", "setting": "CD101 SC 5 or 10 mg/kg at Day −3 and Day −1", "result": "significant decrease in CFU"}]}
